Like-named read-outs stand apart in the source and are kept apart here.
Columns and labels:
[1] = system: BaF3-EGFR^L858R/C797S cells; assay: BaF3 cell proliferation inhibition experiment (CCK-8); type: cell-based; details: Ba/F3 EGFR-L858R, read-out: BaF3-EGFR^L858R/C797S (IC50 nM)
Experimental: (§1) A. Cell line: BaF3 cells with stable overexpression of wild-type genes are named BaF3-EGFR^WT, and BaF3 cells with stable overexpression of EGFR^L858R/T790M/C797S EGFR^del19/T790M/C797S EGFR^L858R/C797S and EGFR^del19/C797S mutant genes are named BaF3-EGFR^L858R/T790M/C797S BaF3-EGFR^del19/T790M/C797S BaF3-EGFR^L858R/C797S and BaF3-EGFR^del19/C797S cells, respectively. Mediums:
(§2) a) The medium was preheated in a 37° C. water bath.
(§3) b) The cryopreservation tube was taken from the liquid nitrogen tank, quickly placed in a 37° C. water bath, and melted completely within 1 minute.
(§4) c) The cell suspension was transferred to a 15 mL centrifuge tube containing a 10 mL medium and centrifuged at 1000 rpm for 4 minutes.
(§5) d) The supernatant was discarded, the cells were resuspended in a 1 mL medium and transferred to a […] culture dish containing a 10 mL medium, 20% serum and 50 ng/mL EGF were administered to the first-generation medium, and culture was conducted in a 37° C. and 5% CO2 incubator.
(§6) b) The cells in the culture dish were blown evenly with a 5 mL pipette, and 500 μL of the cells were pipetted out to be inoculated into a new […] culture dish and cultured in a 37° C. and 5% CO2 incubator.
(§7) a) The compound to be tested (10 mM stock solution) was diluted with 100% DMSO to 1 mM, and diluted with a culture solution in a 24-well plate to prepare of a working solution of 2 μM concentration.
(§8) b) The 2 μM working solution was diluted with a triple dilution method to obtain working solutions with approximate concentrations of 2 μM, 600 nM, 200 nM, 60 nM, and 20 nM.
(§9) a) The cells at the logarithmic growth phase were centrifuged at 1000 rpm for 4 minutes, resuspended with a medium (containing 10% serum and 50 ng/mL EGF), and counted.
(§10) b) The cells were inoculated into a 96-well plate with a cell density of 4000 cells/well, and placed in a 37° C. and 5% CO2 incubator for culture for 12 hours.
(§11) a) The prepared compound was added to a 96-well plate, with 100 μL per well. The final concentrations were 1 μM, 300 nM, 100 nM, 30 nM, 10 nM, and 0 nM, and the final concentration of DMSO was 0.2%. A medium served as a blank control.
(§12) b) The cells were placed in 37° C. and 5% CO2 incubator for culture for 72 hours.
(§13) (5) Cell Viability Testing
(§14) a) The 96-well cell culture plate was taken out, and 20 μL of a CCK-8 reagent (Cell Counting Kit-8, Topscience, Catalog No. C0005) was added in the dark.
(§15) b) Mixing well was conducted on a horizontal shaking table at a room temperature at 100 rpm for 5 minutes.
(§16) c) The culture plate was placed in a 37° C. constant-temperature incubator for incubation.
(§17) The data was analyzed using GraphPad Prism 8.0 software to obtain a fitted curve of activity of the compounds. The IC50 of the compounds was fitted from nonlinear regression equation.

[2] = system: BaF3-EGFR^del19/C797S cells; assay: as above; type: cell-based; details: Mus musculus, read-out: BaF3-EGFR^del19 /C797S (IC50 nM)
Experimental: as §1, §2, §3, §4, §5, §6, §7, §8, §9, §10, §11, §12, §13, §14, §15, §16, §17

[3] = system: BaF3-EGFR^del19/T790M/C797S cells; assay: as above; type: cell-based; details: Ba/F3 EGFR-Del19/T790M/C797S, 72 h, read-out: BaF3-EGFR^del19 /T790M/C797S (IC50 nM)
Experimental: as §1, §2, §3, §4, §5, §6, §7, §8, §9, §10, §11, §12, §13, §14, §15, §16, §17

[4] = system: BaF3-EGFR^WT cells; assay: as above; type: cell-based; details: Mus musculus, BaF3, 72 h, read-out: BaF3-EGFR^WT (IC50 nM)
Experimental: as §1, §2, §3, §4, §5, §6, §7, §8, §9, §10, §11, §12, §13, §14, §15, §16, §17

[5] = target: EGFR^L858R/T790M/C797S kinase (Homo sapiens (Human), UniProt P00533, C797S/L858R/T790M); assay: EGFR^L858R/T790M/C797S kinase inhibitory activity experiment; type: biochemical; details: in vitro
EGFR^L858R/T790M/C797S kinase, sequence (P00533 25-1210 T790M/C797S/L858R): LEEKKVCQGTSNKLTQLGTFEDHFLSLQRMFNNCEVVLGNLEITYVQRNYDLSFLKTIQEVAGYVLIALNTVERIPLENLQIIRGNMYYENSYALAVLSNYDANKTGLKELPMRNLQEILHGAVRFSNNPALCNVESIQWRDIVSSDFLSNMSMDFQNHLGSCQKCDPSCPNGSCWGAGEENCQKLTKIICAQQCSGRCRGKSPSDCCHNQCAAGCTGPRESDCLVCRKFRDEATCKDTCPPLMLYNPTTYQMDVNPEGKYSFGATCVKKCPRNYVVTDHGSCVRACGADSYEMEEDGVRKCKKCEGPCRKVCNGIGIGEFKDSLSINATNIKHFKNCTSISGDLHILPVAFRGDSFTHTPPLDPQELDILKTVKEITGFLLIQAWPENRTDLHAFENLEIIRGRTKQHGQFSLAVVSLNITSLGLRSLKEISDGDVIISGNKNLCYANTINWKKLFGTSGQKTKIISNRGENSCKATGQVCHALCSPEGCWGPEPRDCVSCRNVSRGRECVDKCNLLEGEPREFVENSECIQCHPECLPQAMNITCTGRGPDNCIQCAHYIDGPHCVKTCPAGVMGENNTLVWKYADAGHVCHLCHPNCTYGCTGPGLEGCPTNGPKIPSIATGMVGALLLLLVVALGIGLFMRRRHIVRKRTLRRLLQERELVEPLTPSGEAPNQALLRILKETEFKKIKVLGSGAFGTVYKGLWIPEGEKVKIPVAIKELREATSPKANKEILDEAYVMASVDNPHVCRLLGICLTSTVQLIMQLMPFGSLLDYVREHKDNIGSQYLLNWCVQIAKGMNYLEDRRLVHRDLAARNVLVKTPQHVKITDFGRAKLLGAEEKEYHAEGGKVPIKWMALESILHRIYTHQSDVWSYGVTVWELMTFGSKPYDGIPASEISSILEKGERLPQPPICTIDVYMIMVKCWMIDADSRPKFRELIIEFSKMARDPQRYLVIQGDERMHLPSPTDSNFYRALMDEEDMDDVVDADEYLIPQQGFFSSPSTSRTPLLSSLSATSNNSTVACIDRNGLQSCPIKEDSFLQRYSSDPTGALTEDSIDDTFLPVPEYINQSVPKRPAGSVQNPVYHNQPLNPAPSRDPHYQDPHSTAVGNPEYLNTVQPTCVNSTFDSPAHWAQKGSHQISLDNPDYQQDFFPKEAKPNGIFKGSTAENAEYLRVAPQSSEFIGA
Outline: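 Human EGFR L858R/T790M/C797S mutant preincubated 10 min with compound (10-point dilution from 1 μM), then reacted 60 min at room temperature with ATP and kinase substrate 22. Substrate conversion read by Caliper mobility shift. % inhibition normalized to no-enzyme and no-compound wells, with IC50 from variable-slope log(inhibitor) fit.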

Structure (SMILES)	IC50 ([1]; 72 h)	IC50 ([2]; BaF3, 72 h)	IC50 [3]	IC50 [4]	IC50 [5]	IC50 ([1]; cell proliferation, 72 hours)	IC50 ([2]; BaF3, cell proliferation, 72 hours)
C=CC(=O)Nc1cc(Nc2nccc(-c3cn(C)c4ccccc34)n2)c(OC)cc1N(C)CCN(C)C [AZD9291, reference compound]	> 1000 nM	> 1000 nM	614 nM	76.1 nM	–	–	–
CCc1cc(Nc2ncc(Cl)c(Nc3ccc(C)c(C)c3P(C)(C)=O)n2)c(OC)cc1N1CCC(N2CC3CC2CN3C)CC1 (stereo not shown) [Compound 54, (6-((5-Chloro-2-((5-ethyl-2-methoxy-4-(4-(5-methyl-2,5-diazadicyclo[2.2.1]heptane-2-yl)piperidin-1-yl)phenyl)amino)pyrimidin-4-yl)amino)-2,3-dimethylphenyl)dimethylphosphine oxide]	–	–	–	–	0.201 nM	166 nM	193 nM

From US20250101052A1, “COMPOUND FOR EGFR KINASE INHIBITOR, COMPOSITION, AND USE THEREOF” (INNOVATION INSTITUTE FOR ARTIFICIAL INTELLIGENCE IN …, priority 2021, published 2025)
